Reference: US20040219106A1, “Compounds for use as surfactants” (priority 2001, published 2004)

Tests used:
Format in all cases: physicochemical
[1] = Particle size of salmeterol xinafoate HFA 134a suspension by image analysis (Galai CIS-100)
Experimental: (§1) Salmeterol xinafoate formulations in HFA 134a (1,1,1,2-tetrafluoroethane), of strength 25 μg per actuation, and 10% w/w (relative to drug) of the surfactant compound of Example 1 (Bis(4,4,5,5,5-pentafluopentanoyl)phosphatidylcholine) were prepared using salmeterol xinafoate (5.8 mg), HFA 134a (12 g) and the relevant compound (0.58 mg). The control was prepared without the addition of a surfactant.
In this measurement, particle size is represented as the equivalent diameter of a circle of equal area to the object. The mean is the average of 4 determinations. The particle size measurement was obtained by transferring the suspensions to a presurised cell, and video-imaging the sample under shear via a microscope objective.
The equivalent diameter is defined as the diameter of a circle of equal area to the object. [formula]
The mean equivalent diameter can be weighted by number, length or volume. e.g. For three particles with equivalent diameters of x, y and z: [formula]

[2] = Andersen Cascade Impaction of salmeterol xinafoate HFA 134a formulation; conditions: for % FPM (FPM as percentage of total dose emitted ex-valve) / FPM (fine particle mass, sum of stages 3-5) / Total Dose Emitted (Ex-Actuator) / Total Dose Emitted (Ex-Valve): BoU, mean of 3 cans/inhalers
Experimental: as §1
The formulation, the preparation of which is described above, was profiled using an Andersen Cascade Impactor. Ten actuations at “beginning of use” (BoU) were collected in the impactor from an inhaler after 4 priming actuations were fired to waste. The drug delivered was then quantified by HPLC analysis. Testing was performed intially (following sample preparation) and then after inhalers had been stored at 40° C./75% RH for 8 weeks and for 3 months. The results, at each timepoint, in Table 2 are shown as the mean analysis of 3 cans/inhalers.
The profile obtained was used to determine total dose emitted dose (ex-valve and ex-actuator) and the fine particle mass (FPM, defined as the sum of stages 3-5). The percentage fine particle mass expresses the FPM as a percentage of the total dose emitted (ex-valve). The FPM is used as a measure of the proportion of the drug likely to reach the therapeutic target in the lungs.

[3] = Content uniformity by dose through use testing; conditions: for BuO dose: actuations 1+2, mean of 10 inhalers; for EuO dose: actuations 119+120, mean of 10 inhalers
Experimental: as §1
The content uniformity of the formulation, the preparation of which is described above, was assessed by dose through use testing. Testing was performed on 10 cans/inhalers at “beginning of use” (BoU) and “end of use” (EoU). After each inhaler had been primed (4 shots fired to waste), actuations 1 and 2 (BoU) were collected. The next 116 actuations of each inhaler were then fired to waste using an automated method and actuations 119 and 120 (EoU) collected.
Assesment of content uniformity was performed intially (following sample preparation) and then on a further 10 inhalers for each timepoint, 8 weeks and 3 months, which were stored at 40° C./75% RH. Mean results from the two BoU actuations (1+2 for 10 inhalers) and the two EoU actuations (119+120 for same 10 inhalers) at each timepoint together with the percentage relative standard deviation (% RSD) for the 10 cans are shown in Table 3.

[4] = in the presence of the surfactant

## C[N+](C)(C)CCOP(=O)([O-])OC[C@@H](COC(=O)CCC(F)(F)C(F)(F)F)OC(=O)CCC(F)(F)C(F)(F)F [Example 1, Bis(4,4,5,5,5-pentafluopentanoyl)phosphatidylcholine]
[1]; compound incorporated into the formulation
  change in average particle size (mean length weighted diameter) versus control: marked reduction
[1]; salmeterol xinafoate 25 μg per actuation in HFA 134a, 10% w/w surfactant relative to drug, average of 4 determinations
  Mean Length weighted diameter: 13.3 μm
[1]; salmeterol xinafoate in HFA 134a, 10% w/w surfactant
  suspension stabilising properties (discouraging flocculation of drug particles): suspension stabilising properties
[2]; 3 month at 40° C./75% RH
  % FPM (FPM as percentage of total dose emitted ex-valve): 42.5%
  FPM (fine particle mass, sum of stages 3-5): 10.4 µg
  Total Dose Emitted (Ex-Actuator): 20.1 µg
  Total Dose Emitted (Ex-Valve): 24.4 µg
[2]; 8 week at 40° C./75% RH
  % FPM (FPM as percentage of total dose emitted ex-valve): 44.2%
  FPM (fine particle mass, sum of stages 3-5): 10.4 µg
  Total Dose Emitted (Ex-Actuator): 19.5 µg
  Total Dose Emitted (Ex-Valve): 23.5 µg
[2]; Initial
  % FPM (FPM as percentage of total dose emitted ex-valve): 47.7%
  FPM (fine particle mass, sum of stages 3-5): 11.1 µg
  Total Dose Emitted (Ex-Actuator): 20.0 µg
[2]; Initial, 10% w/w surfactant
  Total Dose Emitted (Ex-Valve): 23.3 µg
[2]; [4]
  change in absolute FPM versus control: increase
  change in absolute doses emitted versus control: increase
  change in percentage FPM versus control: significant increase
[3]; 3 Month at 40° C./75% RH
  BuO dose: 19.7 µg
  EuO dose: 22.6 µg
[3]; 8 Week at 40° C./75% RH
  BuO dose: 20.3 µg
  EuO dose: 24.2 µg
[3]; 10 inhalers tested
  change in percentage RSD at EoU versus control (can to can reproducibility): reduction
[3]; Initial
  BuO dose: 19.6 µg
  EuO dose: 23.3 µg
